The record followed here is patent US9850247B2 (Almac Discovery Limited, priority 2013, dated 2017).

A value given as a limit tells only on which side of the number the result lay.

The data set can be described thus: Kinetic solubility in PBS buffer (Method 5). The class given is physicochemical. The following applies: aqueous buffer, kinetic from dmso stock; PBS buffer pH 7.4. The protocol:
[formula] [formula] [formula] where V=Incubation volume (μL)/number of cells Method 5: Determination of Kinetic Solubility (in PBS Buffer)
Test compounds (5 μL; 10 mM DMSO stock) were added to 245 μL 10 of PBS buffer pH 7.4 (Dulbecco A) in a Millipore MultiScreen® Solubility Filter plate and mixed at 300 rpm at room temperature on a plate shaker for 90 minutes. Meanwhile 5-points calibration curves for each compound were established in a mixture of acetonitrile/PBS buffer 15 (top concentration 200 μM). After filtration and matrix match, the calibration and assay plates were analysed on a Bioteck Synergy 4 plate reader (240-400 nm). Final concentration of the test compound in the filtrate was calculated using the slope of the calibration curve. All 20 measurements were carried out in triplicate.

The term solubility (kinetic) denotes the concentration staying in solution when a stock, usually in DMSO, is diluted into the medium. In the case of `Cc1cc(Nc2ncc3c(=O)n(-c4c(Cl)cccc4Cl)cc(C)c3n2)ccc1N1CCNCC1` [reference compound], the kinetic solubility at 90 min was < 50 µM.
Under `Cc1cc(Nc2ncc3c(n2)N(C)CN(c2c(Cl)cccc2Cl)C3=O)ccc1N1CCNCC1` [drawing 385] stands > 150 µM; under `CN1CN(c2c(Cl)cccc2Cl)C(=O)c2cnc(Nc3ccc(N4CCNCC4)cc3)nc21` [drawing 383], > 150 µM.
Turning to `Cc1cn(-c2c(Cl)cccc2Cl)c(=O)c2cnc(Nc3ccc(N4CCNCC4)cc3)nc12` [reference compound], the kinetic solubility at 90 min is < 50 µM.
